{"source": "the supplement of paper PMC10307832", "experiment_in_all_cases": "relative viability (nuclei count vs DMSO), 5 days (fraction); higher = more cells survive", "key": {"VE-821 + Linsitinib": {"compound": "CS(=O)(=O)c1ccc(-c2cnc(N)c(C(=O)Nc3ccccc3)n2)cc1 [VE-821] + C[C@]1(O)C[C@@H](c2nc(-c3ccc4ccc(-c5ccccc5)nc4c3)c3c(N)nccn32)C1 [Linsitinib] (partner 1 µM)", "outline": "(§1)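 Dosing by pin tool came one day after lung cancer cell lines were seeded in 1536-well plates, using either one drug or a fixed anchor-drug dose plus five library-drug doses (not always all listed) in √10 steps. After 5 days, nuclei were counted on 4× images. Relative viability is treated-well nuclei count divided by vehicle-well nuclei count, and values are medians of duplicate plates.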"}, "VE-821 + Phenformin": {"compound": "CS(=O)(=O)c1ccc(-c2cnc(N)c(C(=O)Nc3ccccc3)n2)cc1 [VE-821] + N=C(N)NC(=N)NCCc1ccccc1 [Phenformin] (partner 250 µM)", "outline": "as §1"}, "Vismodegib + Palbociclib": {"compound": "CS(=O)(=O)c1ccc(C(=O)Nc2ccc(Cl)c(-c3ccccn3)c2)c(Cl)c1 [Vismodegib] + CC(=O)c1c(C)c2cnc(Nc3ccc(N4CCNCC4)cn3)nc2n(C2CCCC2)c1=O [Palbociclib] (partner 0.5 µM)", "outline": "as §1"}, "Ruxolitinib + Linsitinib": {"compound": "N#CC[C@H](C1CCCC1)n1cc(-c2ncnc3[nH]ccc23)cn1 [Ruxolitinib] + C[C@]1(O)C[C@@H](c2nc(-c3ccc4ccc(-c5ccccc5)nc4c3)c3c(N)nccn32)C1 [Linsitinib] (partner 1 µM)", "outline": "as §1"}}, "data": [{"cell line": "UMC-11", "values": [{"measurement": "relative viability", "setting": "VE-821 + Linsitinib; first compound 0.08 µM", "result": 1.14}, {"measurement": "relative viability", "setting": "VE-821 + Linsitinib; first compound 0.253 µM", "result": 1.03}, {"measurement": "relative viability", "setting": "VE-821 + Linsitinib; first compound 0.8 µM", "result": 1.06}, {"measurement": "relative viability", "setting": "VE-821 + Linsitinib; first compound 2.53 µM", "result": 1.04}, {"measurement": "relative viability", "setting": "VE-821 + Linsitinib; first compound 8 µM", "result": 0.533}, {"measurement": "relative viability", "setting": "VE-821 + Phenformin; first compound 0.08 µM", "result": 0.335}, {"measurement": "relative viability", "setting": "VE-821 + Phenformin; first compound 0.253 µM", "result": 0.301}, {"measurement": "relative viability", "setting": "VE-821 + Phenformin; first compound 0.8 µM", "result": 0.331}, {"measurement": "relative viability", "setting": "VE-821 + Phenformin; first compound 2.53 µM", "result": 0.341}, {"measurement": "relative viability", "setting": "VE-821 + Phenformin; first compound 8 µM", "result": 0.265}, {"measurement": "relative viability", "setting": "Vismodegib + Palbociclib; first compound 0.08 µM", "result": 0.343}, {"measurement": "relative viability", "setting": "Vismodegib + Palbociclib; first compound 0.253 µM", "result": 0.346}, {"measurement": "relative viability", "setting": "Vismodegib + Palbociclib; first compound 0.8 µM", "result": 0.298}, {"measurement": "relative viability", "setting": "Vismodegib + Palbociclib; first compound 2.53 µM", "result": 0.351}, {"measurement": "relative viability", "setting": "Vismodegib + Palbociclib; first compound 8 µM", "result": 0.344}, {"measurement": "relative viability", "setting": "Ruxolitinib + Linsitinib; first compound 0.08 µM", "result": 1.03}, {"measurement": "relative viability", "setting": "Ruxolitinib + Linsitinib; first compound 0.253 µM", "result": 1.08}, {"measurement": "relative viability", "setting": "Ruxolitinib + Linsitinib; first compound 0.8 µM", "result": 1.08}, {"measurement": "relative viability", "setting": "Ruxolitinib + Linsitinib; first compound 2.53 µM", "result": 1.11}, {"measurement": "relative viability", "setting": "Ruxolitinib + Linsitinib; first compound 8 µM", "result": 0.96}]}]}
